From patent US12264163B2, “Compounds and methods for treating fibrotic pathologies” (Mayo Foundation for Medical Education and Research, priority 2019, dated 2025) come the findings set out here.

Counter-ions that a name gives are not always drawn.

For assay [1], the system named is YAP/TAZ. The experiment in a line: YAP/TAZ nuclear localization in IPF patient-derived lung fibroblasts treated with dopaminergic agonists. It is filed as cell-based, human. Particulars: 10 μM, 2 hours. The method, then:
IPF patient-derived lung fibroblasts cells treated 2 hours prior to fixation with diverse dopaminergic agonists (10 μM). N=4 different patient samples. % nuclear localization of YAP/TAZ was determined using automated imaging software. Scale bar represents 100 μm.
(§1) Media was then exchanged for the indicated conditions for each experiment. […] Cells or tissue sections were incubated overnight with mouse monoclonal antibody against αSMA (Sigma-Aldrich F3777), and/or a rabbit monoclonal antibody against YAP/TAZ (Cell Signaling D24E4) diluted 1:200 in PBS with 1% BSA. Cells were then washed and exposed to flourescence-conjugated secondary antibodies (Invitrogen) diluted 1:1000 and DAPI (Thermo Fisher Scientific). Images were taken with a Cytation5 (BioTek) microscope. For scoring αSMA positive cells (FIG. 12), an observer blinded to the treatment conditions counted αSMA-positive cells using a visual threshold for bright fibrous staining; a minimum of 200 cells was counted for each condition. YAP/TAZ localization was quantified (FIGS. 6-10, 24-26, and 29-30) using Gen5 (Biotek) software. Images were taken at 4× magnification of both DAPI and YAP/TAZ staining. […] Quantification of double positive (YAP/TAZ and αSMA) cells from lung tissue sections (FIG. 17-21) was performed similarly; however separate thresholds were established for both YAP/TAZ and αSMA. A minimum of 4000 cells was quantified for each mouse.

Assay [2] has as its system αSMA. The experiment in a line: αSMA intensity (fibroblast activation) in IPF patient-derived lung fibroblasts + TGFβ, dopaminergic agonist library. The format is cell-based, human. The conditions noted are these: 1 μM + TGFβ, 72 hours. The method, then: as §1

On to `CCCN(CCc1ccccc1)C1CCc2c(O)cccc2C1.Cl` (racemic) [(±)-2-(N-phenylethyl-N-propyl)amino-5-hydroxytetralin], for which the “Nuclear localization (% of total cells)” value in assay [1] (IPF-1 patient fibroblasts) is given as 68.85 % of total cells; in assay [1] (IPF-2 patient fibroblasts), 60.86 % of total cells; in assay [1] (IPF-3 patient fibroblasts), 68 % of total cells; in assay [1] (IPF-4 patient fibroblasts), 56.552 % of total cells. Further, the “αSMA intensity (% of DMSO control)” value is 65.43 % of DMSO control in assay [2] (IPF-1 patient fibroblasts), 52.77 % of DMSO control in assay [2] (IPF-2 patient fibroblasts), 60.4844 % of DMSO control in assay [2] (IPF-3 patient fibroblasts) and 51.1 % of DMSO control in assay [2] (IPF-4 patient fibroblasts).
`CCCN1CCO[C@@H]2c3cc(O)ccc3OC[C@H]21.Cl` (racemic) [(±)-PD 128,907•HCl, (±)-PD 128,907]: the “Nuclear localization (% of total cells)” value in assay [1] (IPF-1 patient fibroblasts) is reported as 60.13 % of total cells; in assay [1] (IPF-2 patient fibroblasts), 49.54 % of total cells; in assay [1] (IPF-3 patient fibroblasts), 78.48 % of total cells; in assay [1] (IPF-4 patient fibroblasts), 60.66 % of total cells. The “αSMA intensity (% of DMSO control)” value was 83.68 % of DMSO control in assay [2] (IPF-1 patient fibroblasts), 85.45 % of DMSO control in assay [2] (IPF-2 patient fibroblasts), 94.2538 % of DMSO control in assay [2] (IPF-3 patient fibroblasts) and 75.15 % of DMSO control in assay [2] (IPF-4 patient fibroblasts).
As to `Br.C=CCN1CCc2c(cc(O)c(O)c2Cl)C(c2ccccc2)C1` (racemic) [(±)-SKF-82958•HBr, (±)-SKF-82958], the “Nuclear localization (% of total cells)” value is given as 29.15 % of total cells in assay [1] (IPF-1 patient fibroblasts), 38 % of total cells in assay [1] (IPF-2 patient fibroblasts), 38 % of total cells in assay [1] (IPF-3 patient fibroblasts) and 12.29 % of total cells in assay [1] (IPF-4 patient fibroblasts). Further, the “αSMA intensity (% of DMSO control)” value in assay [2] (IPF-1 patient fibroblasts) is reported as 11.78 % of DMSO control; in assay [2] (IPF-2 patient fibroblasts) it was 4.966 % of DMSO control; in assay [2] (IPF-3 patient fibroblasts), 2.428 % of DMSO control; in assay [2] (IPF-4 patient fibroblasts) it was 9.326 % of DMSO control.
In the case of `NCCc1ccc(O)cc1` [4-Hydroxyphenethylamine•HCl, 4-Hydroxyphenethylamine], the “Nuclear localization (% of total cells)” value in assay [1] (IPF-1 patient fibroblasts) was 56.52 % of total cells; in assay [1] (IPF-2 patient fibroblasts), 45.69 % of total cells; in assay [1] (IPF-3 patient fibroblasts) it was 76.57 % of total cells; in assay [1] (IPF-4 patient fibroblasts), 43.3719 % of total cells.
On to `Br.NC1CCc2cc(O)c(O)cc2C1` (stereo not drawn) [6,7-ADTN•HBr, 6,7-ADTN], for which the “Nuclear localization (% of total cells)” value is listed as 43.89 % of total cells in assay [1] (IPF-1 patient fibroblasts), 44 % of total cells in assay [1] (IPF-2 patient fibroblasts), 65.5 % of total cells in assay [1] (IPF-3 patient fibroblasts) and 52.65 % of total cells in assay [1] (IPF-4 patient fibroblasts). Moreover, the “αSMA intensity (% of DMSO control)” value is given as 37.14 % of DMSO control in assay [2] (IPF-1 patient fibroblasts), 4.182 % of DMSO control in assay [2] (IPF-2 patient fibroblasts), 9.909 % of DMSO control in assay [2] (IPF-3 patient fibroblasts) and 4.888 % of DMSO control in assay [2] (IPF-4 patient fibroblasts).
`CCCN(CCC)[C@@H]1CCc2c(OC)cccc2[C@@H]1C.O=C(O)/C=C/C(=O)O` [(+)-UH 232 maleate, (+)-UH 232]: the “Nuclear localization (% of total cells)” value in assay [1] (IPF-1 patient fibroblasts) is on record as 61.9521 % of total cells; in assay [1] (IPF-2 patient fibroblasts), 68 % of total cells; in assay [1] (IPF-3 patient fibroblasts), 71.85 % of total cells; in assay [1] (IPF-4 patient fibroblasts) it was 67.27 % of total cells. For the same compound, the “αSMA intensity (% of DMSO control)” value is 82.91 % of DMSO control in assay [2] (IPF-1 patient fibroblasts), 63.85 % of DMSO control in assay [2] (IPF-2 patient fibroblasts), 85.81 % of DMSO control in assay [2] (IPF-3 patient fibroblasts) and 65.71 % of DMSO control in assay [2] (IPF-4 patient fibroblasts).
Regarding `NC[C@@H]1O[C@H](C23CC4CC(CC(C4)C2)C3)Cc2c1ccc(O)c2O` [A-77636•HCl•H2O, A-77636], the “Nuclear localization (% of total cells)” value was 26.46 % of total cells in assay [1] (IPF-1 patient fibroblasts), 30.88 % of total cells in assay [1] (IPF-2 patient fibroblasts), 41.33 % of total cells in assay [1] (IPF-3 patient fibroblasts) and 37.79 % of total cells in assay [1] (IPF-4 patient fibroblasts). Further, the “αSMA intensity (% of DMSO control)” value is 5.808 % of DMSO control in assay [2] (IPF-1 patient fibroblasts), 0.7188 % of DMSO control in assay [2] (IPF-2 patient fibroblasts), 0.06766 % of DMSO control in assay [2] (IPF-3 patient fibroblasts) and 12.43 % of DMSO control in assay [2] (IPF-4 patient fibroblasts).
On to `C=CCN1CCc2nc(N)sc2CC1.Cl.Cl` [B-HT 920•2HCl, B-HT 920], for which the “Nuclear localization (% of total cells)” value is given as 75.68 % of total cells in assay [1] (IPF-1 patient fibroblasts), 46.9 % of total cells in assay [1] (IPF-2 patient fibroblasts), 64.79 % of total cells in assay [1] (IPF-3 patient fibroblasts) and 76.24 % of total cells in assay [1] (IPF-4 patient fibroblasts). Besides, the “αSMA intensity (% of DMSO control)” value in assay [2] (IPF-1 patient fibroblasts) was 74.98 % of DMSO control; in assay [2] (IPF-2 patient fibroblasts), 58.97 % of DMSO control; in assay [2] (IPF-3 patient fibroblasts), 70.12 % of DMSO control; in assay [2] (IPF-4 patient fibroblasts) it was 54.23 % of DMSO control.
For `CC(C)C[C@H]1C(=O)N2CCC[C@H]2[C@]2(O)O[C@](NC(=O)[C@@H]3C=C4c5cccc6[nH]c(Br)c(c56)C[C@H]4N(C)C3)(C(C)C)C(=O)N12` [Bromocriptine mesylate, Bromocriptine], the “Nuclear localization (% of total cells)” value in assay [1] (IPF-1 patient fibroblasts) is on record as 73.03 % of total cells; in assay [1] (IPF-2 patient fibroblasts), 52.81 % of total cells; in assay [1] (IPF-3 patient fibroblasts) it was 64.09 % of total cells; in assay [1] (IPF-4 patient fibroblasts), 64.6 % of total cells.
Consider `CN1Cc2ccccc2[C@@H]2c3cccc4[nH]cc(c34)C[C@H]21` [CY 208-243], for which the “Nuclear localization (% of total cells)” value in assay [1] (IPF-1 patient fibroblasts) is reported as 20.52 % of total cells; in assay [1] (IPF-2 patient fibroblasts), 39.79 % of total cells; in assay [1] (IPF-3 patient fibroblasts), 41.17 % of total cells; in assay [1] (IPF-4 patient fibroblasts), 19.82 % of total cells. Further, the “αSMA intensity (% of DMSO control)” value in assay [2] (IPF-1 patient fibroblasts) is on record as 21.01 % of DMSO control; in assay [2] (IPF-2 patient fibroblasts), 2.28 % of DMSO control; in assay [2] (IPF-3 patient fibroblasts) it was 2.611 % of DMSO control; in assay [2] (IPF-4 patient fibroblasts) it was 9.643 % of DMSO control.
In the case of `C=CCN1C[C@H](C(=O)N(CCCN(C)C)C(=O)NCC)C[C@@H]2c3cccc4[nH]cc(c34)C[C@H]21` [Cabergoline], the “Nuclear localization (% of total cells)” value is recorded as 57.02 % of total cells in assay [1] (IPF-1 patient fibroblasts), 57.41 % of total cells in assay [1] (IPF-2 patient fibroblasts), 45.95 % of total cells in assay [1] (IPF-3 patient fibroblasts) and 68.69 % of total cells in assay [1] (IPF-4 patient fibroblasts).
On to `CN1C[C@@H](NS(=O)(=O)N(C)C)C[C@@H]2c3cccc4c3c(cn4C)C[C@H]21` [Mesulergine•HCl, Mesulergine], for which the “Nuclear localization (% of total cells)” value is recorded as 37.81 % of total cells in assay [1] (IPF-1 patient fibroblasts), 45.14 % of total cells in assay [1] (IPF-2 patient fibroblasts), 78.625 % of total cells in assay [1] (IPF-3 patient fibroblasts) and 45.14 % of total cells in assay [1] (IPF-4 patient fibroblasts).
Take `CCCN1C[C@H](CSC)C[C@@H]2c3cccc4[nH]cc(c34)C[C@H]21` [Pergolide mesylate, Pergolide]: the “Nuclear localization (% of total cells)” value in assay [1] (IPF-1 patient fibroblasts) is listed as 82.49 % of total cells; in assay [1] (IPF-2 patient fibroblasts) it was 69.37 % of total cells; in assay [1] (IPF-3 patient fibroblasts) it was 70.67 % of total cells; in assay [1] (IPF-4 patient fibroblasts), 65.58 % of total cells.
`c1cnc(N2CCN(Cc3ccc4c(c3)OCO4)CC2)nc1` [Piribedil•2HCl, Piribedil]: the “Nuclear localization (% of total cells)” value in assay [1] (IPF-1 patient fibroblasts) is 61.58 % of total cells; in assay [1] (IPF-2 patient fibroblasts), 85.76 % of total cells; in assay [1] (IPF-3 patient fibroblasts), 59.05 % of total cells; in assay [1] (IPF-4 patient fibroblasts) it was 59.64 % of total cells.
Turning to `CCCN[C@H]1CCc2nc(N)sc2C1` [Pramipexole Dihydrochloride Monohydrate, Pramipexole], the “Nuclear localization (% of total cells)” value in assay [1] (IPF-1 patient fibroblasts) is listed as 64.92 % of total cells; in assay [1] (IPF-2 patient fibroblasts) it was 47.65 % of total cells; in assay [1] (IPF-3 patient fibroblasts), 65.5 % of total cells; in assay [1] (IPF-4 patient fibroblasts), 58.97 % of total cells.
On to `Oc1cc2c(cc1O)[C@@H](c1ccccc1)CNCC2` [SKF 38393•HBr, SKF 38393], for which the “Nuclear localization (% of total cells)” value is on record as 69.5873 % of total cells in assay [1] (IPF-1 patient fibroblasts), 47.375 % of total cells in assay [1] (IPF-2 patient fibroblasts), 61.33 % of total cells in assay [1] (IPF-3 patient fibroblasts) and 35.79 % of total cells in assay [1] (IPF-4 patient fibroblasts).
